Here are results for one molecule from US12437835B2, “Interrogatory cell-based assays and uses thereof” (Berg LLC, priority 2012, dated 2025).

“Also recorded” adds a separate entry of the source.

Assay [1] deals with HUVEC cells. Put plainly: Endothelial morphology of HUVEC cultures. The assay is classed as cell-based, Human. As to conditions: 24 hours. How it is done: Effect of CoQ10 on endothelial morphology: Human umbilical vein endothelial cells (HUVEC cells) were treated for 24 hours with a range of concentrations of CoQ10. Drug was applied to confluent cells that closely resemble ‘normal’ cells and also to sub-confluent cells that more closely represent the angiogenic phenotype of proliferating cells. […] The response of sub-confluent endothelial cells to CoQ10 diverged from the confluent cell response (FIG. 52B).

The subject of assay [2] is HUVEC cells. Description: HUVEC proliferation (propidium iodide incorporation, G2/M phase). To be noted: sub-confluent HUVEC, 72 hours, 100 or 1500 μM CoQ10. The assay is classed as cell-based, Human. As for the experimental part: Methods: Human umbilical vein endothelial cell (HUVEC) fate decisions that modulate the angiogenic phenotype were examined in the presence of 100 or 1500 μM CoQ10 or excipient and compared to untreated control cells. Endothelial cell fate assays for apoptosis, proliferation, migration and 3-D tube formation within MATRIGEL® were performed.
CoQ10 decreases endothelial cell numbers and proliferation: Sub-confluent cultures of HUVEC cells were treated for 72 hours with 100 or 1500 μM CoQ10 and assayed for both cell numbers (FIG. 54A) and proliferation (FIG. 54B) using a propidium iodide incorporation assay (detects G2/M phase DNA).

The next assay has as its system LDHA. Description: Wet lab validation of LDHA expression in HepG2 cells. The assay is classed as cell-based. As to conditions: HepG2, 50 uM or 100 uM CoQ10, 24 or 48 hours. How it is done: The cell model comprising the above-mentioned cells, wherein the cells were exposed to each condition described above, was additionally interrogated by exposing the cells to an environmental perturbation by treating with Coenzyme Q10. Specifically, the cells were treated with Coenzyme Q10 at 0, 50 μM, or 100 μM.
Cell samples as well as media samples for each cell line with each condition and each Coenzyme Q10 treatment were collected at various times following treatment, including after 24 hours and 48 hours of treatment.
Protein accession number P00338 is LDHA. Wet lab validation of proteomics data were performed for LDHA expression in HepG2 cells (see FIG. 20).

In assay [3] the test system is hyperglycemia conditioned cardiomyocytes. Put plainly: Mitochondrial oxygen consumption rate in hyperglycemia conditioned cardiomyocytes (Seahorse). The assay is classed as cell-based, Human. To be noted: diabetic drug plus Coenzyme Q10 (T1+R or T2+R). As for the experimental part:
Human cardiomyocytes were subject to conditions simulating an diabetic environment experienced by the disease-relevant cells in vivo. Specifically, the cells were exposed to hyperglycemic conditions and hyperlipidemia conditions. The hyperglycemic condition was induced by culturing cells in media containing 22 mM glucose. The hyperlipidemia condition was induced by culturing the cells in media containing 1 mM L-carnitine, 0.7 mM Oleic acid and 0.7 mM Linoleic acid.
iProfiling of changes in total cellular protein expression by quantitative proteomics was performed for cell and media samples collected for each condition and with each “environmental perturbation”, i.e, diabetic drug treatment, Coenzyme Q10 treatment or both, using the techniques described above in the detailed description. Transcriptional profiling experiments were carried out using the Biorad cfx-384 amplification system. Following data collection (Ct), the final fold change over control was determined using the δCt method as outlined in manufacturer's protocol. Lipidomics experiments were carried out using mass spectrometry. Functional assays such as Oxygen consumption rate OCR were measured by employing the Seahorse analyzer essentially as recommended by the manufacturer. OCR was recorded by the electrodes in a […] chamber created with the cartridge pushing against the seahorse culture plate. […]

In another assay the test system is caspase 3. Put plainly: Caspase 3 activation in endothelial cells. The assay is classed as cell-based. From the text: Angiogenesis is a key enabling feature of tumor progression that provides oxygen and nutrients that are required for tumor cell growth. We have investigated the anti-angiogenic properties of CoQ10, an anti-tumor drug that is currently under investigation in human studies of cancer progression.

For the next assay, the system named is Bcl2. As to conditions: melanoma cell, in the presence of VEGF; cited from earlier work.

Regarding `COC1=C(OC)C(=O)C(C/C=C(\C)CC/C=C(\C)CC/C=C(\C)CC/C=C(\C)CC/C=C(\C)CC/C=C(\C)CC/C=C(\C)CC/C=C(\C)CC/C=C(\C)CCC=C(C)C)=C(C)C1=O` [CoQ10, Coenzyme Q10], the endothelial morphology result in the assay on HUVEC cells [1] (confluent cultures, 5000 μM) is “subtle increase in rounded cells”; with HUVEC cells [1] (confluent cultures, increasing concentrations of CoQ10), “closer association, elongation and alignment of ECs”; with HUVEC cells [1] (sub-confluent cultures, 1000 μM CoQ10 and above) it was “visibly unhealthy”. The visible cell death entry in the assay with HUVEC cells [1] (sub-confluent cultures, increasing concentrations of CoQ10) is recorded as “Increased cell death”. Moreover, the “EC proliferation (G2/M phase cells)” value in the assay with HUVEC cells [2] is “dose-dependent effect; also recorded: potent inhibitor of endothelial proliferation; also recorded: impairs endothelial proliferation”. Besides, the LDHA expression levels entry with LDHA is on record as “decreased”. The “mitochondrial OCR (oxygen consumption rate)” value in assay [3] is listed as “normalized”; in assay [3] (listed as rescue molecule), “normalizes”. Further, the “activation of caspase 3” value in the assay with caspase 3 is reported as “induces activation of caspase 3”. The “level of Bcl2” value in the assay with Bcl2 is on record as “decreased”.
